Molecular target: T1, human Edg 1 receptor (Homo sapiens, UniProt P21453)
T1 construct: expressed in transfected cells; membrane preparation
Assay: GTP-γ-S assay using human Edg 1 receptors (scintillation proximity assay, CHO Flp-In membrane preparation)
Assay type: biochemical
Conditions: test compound at 10 μM; high control 10 μM S1P regarded as 100% activation; background-corrected; triplicate; read-out: % activation (Edg 1 receptor activation in percent of the activation by 10 μM S1P)
Text: Determination of the Pharmacological Activity A) GTP-γ-S Assay Using Human Edg 1 Receptors
In order to determine the Edg 1 receptor activation by the compounds of the invention, a GTP-γ-S ((GTP-γ-S=guanosine 5′-[thio]triphosphate) assay for G-protein coupled receptor binding based on the scintillation proximity assay principle was used, employing a cell membrane preparation from a CHO Flp-In cell line which constitutively overexpresses the human Edg 1 receptor.
The Flp-In™ expression system (Invitrogen, cat. no. K6010-01) allows the generation of stable mammalian cell lines into which the gene of interest has been integrated through homologous recombination at a specific genomic location called Flp Recombination Target (FRT) site by means of a Flp recombinase encoded by the pOG44 expression plasmid. The integration of the pcDNA5/FRT expression construct into the Flp-In host cell line genome results in the transcription of the gene of interest. The stably transfected cells become hygromycin-resistant.
One day prior to transfection, 200 000 Flp-In-CHO cells were seeded in Ham F-12 medium (Invitrogen, cat. no. 31765) supplemented with 10% fetal calf serum (FCS; Perbio Science, cat. no. SH30068.03) in a 6-well plate and incubated at 37° C./5% CO2 overnight. Using the FuGENE® 6 transfection reagent (Roche, cat. no. 11988387001), cells were cotransfected with the Flp recombinase expression plasmid pOG44 and a modified plasmid additionally containing the edg 1 gene (accession no. NM_001400) termed as pcDNA5-FRT-TO_nFLAG_DEST-EDG 1 with a 9:1 ratio. To obtain the modified pcDNA5-FRT-TO_nFLAG_DEST plasmid, the Invitrogen plasmid pcDNA5/FRT/TO (Invitrogen, cat. no. V6520-20) was adapted to the Gateway® (Invitrogen) cloning system by inserting a Gateway cassette containing attR recombination sites flanking a ccdB gene and a chloramphenicol-resistance gene (Gateway conversion system, Invitrogen, cat. no. 11828-029). In addition a FLAG tag epitope was added before the 5′ att recombination site to allow recombinant expression of N-terminally FLAG-tagged proteins.
For the transfection of one well, 1.08 μg of pOG44 and 0.12 μg of pcDNA5-FRT-TO_nFLAG_DEST-EDG 1 were mixed with 100 μl of serum-free Ham F-12 medium containing 6 μl of FuGENE® 6 transfection reagent. After 20 min of incubation, the transfection reagent/DNA complex was distributed dropwise on the cells. The cells were incubated for 24 h at 37° C. Then the cells from 3 wells were transferred to a T75 flask (Greiner Cellstar®, cat. no. 658175) containing Ham F-12 medium supplemented with 10% of FCS but without antibiotic and were incubated for another 24 h. 48 h after transfection, the medium was replaced by selection medium (Ham F-12 supplemented with 10% of FCS and 300 μg/ml of hygromycin B (Invitrogen, cat. no. 10687-010)). The medium was exchanged every 2 to 3 days until a resistant population of cells had grown. […] After 2 weeks of selection, the cells were transferred into T175 flasks (Greiner Cellstar®, cat. no. 660175) and cultivated for batch production. Cells were harvested from the culture flasks by short treatment (2 to 5 min) with Accutase (PAA, cat. no. L^11-007), resuspended in selection medium (see above) and centrifuged at 200×g for 5 min. Cells were resuspended in a mixture of 90% of FCS and 10% of dimethyl sulfoxide and stored frozen in liquid nitrogen.
A membrane preparation was obtained by standard methods from the afore-described CHO Flp-In cell line constitutively overexpressing the human Edg 1 receptor. Briefly, the cryopreserved cells were taken in culture and grown until confluency in T175 cell culture flasks (Becton Dickinson, cat. no. 35 5001). […]

T1 sequence (P21453 whole entry): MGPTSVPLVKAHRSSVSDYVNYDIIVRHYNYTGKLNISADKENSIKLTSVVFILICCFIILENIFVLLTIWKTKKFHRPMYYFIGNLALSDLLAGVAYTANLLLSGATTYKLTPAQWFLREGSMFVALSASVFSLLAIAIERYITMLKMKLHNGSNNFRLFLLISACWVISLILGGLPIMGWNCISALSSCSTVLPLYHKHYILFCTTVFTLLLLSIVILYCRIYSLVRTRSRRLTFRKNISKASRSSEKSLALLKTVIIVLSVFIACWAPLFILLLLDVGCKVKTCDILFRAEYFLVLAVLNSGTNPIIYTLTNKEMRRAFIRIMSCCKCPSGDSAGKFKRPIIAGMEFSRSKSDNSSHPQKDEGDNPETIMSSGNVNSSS

CCCOc1nc(Oc2cccc(Cl)c2)nc2oc(-c3cc(C)c(OCC(=O)N4CCC[C@H]4C(=O)O)c(C)c3)nc12 [Example 9, (S)-1-(2-{4-[5-(3-Chlorophenoxy)-7-propoxyoxazolo[5,4-d]pyrimidin-2-yl]-2,6-dimethylphenoxy}acetyl)pyrrolidine-2-carboxylic acid] was tested, and the activation at 10 µM was 128%.
Compound CCCOc1nc(Oc2ccccc2)nc2oc(-c3cc(C)c(OCC(=O)N4CCC[C@H]4C(=O)O)c(C)c3)nc12 [Example 8, (S)-1-{2-[2,6-Dimethyl-4-(5-phenoxy-7-propoxyoxazolo[5,4-d]pyrimidin-2-yl)phenoxy]acetyl}pyrrolidine-2-carboxylic acid] has an activation at 10 µM of 108%.
CCCOc1nc(OCC2CCC2)nc2oc(-c3cc(C)c(OCC(=O)N4CCC[C@H]4C(=O)O)c(C)c3)nc12 [Example 16, (S)-1-{2-[4-(5-Cyclobutylmethoxy-7-propoxyoxazolo[5,4-d]pyrimidin-2-yl)-2,6-dimethylphenoxy]acetyl}pyrrolidine-2-carboxylic acid] gave an activation at 10 µM of 85%.
CCOc1nc(Oc2cccc(Cl)c2)nc2oc(-c3cc(C)c(OCC(=O)N4CCC[C@H]4C(=O)O)c(C)c3)nc12 [Example 10, (S)-1-(2-{4-[5-(3-Chlorophenoxy)-7-ethoxyoxazolo[5,4-d]pyrimidin-2-yl]-2,6-dimethylphenoxy}acetyl)pyrrolidine-2-carboxylic acid] showed an activation at 10 µM of 69%.
With CCCOc1nc(Oc2ccccc2F)nc2oc(-c3cc(C)c(OCC(=O)N4CCC[C@H]4C(=O)O)c(C)c3)nc12 [Example 3, (S)-1-(2-{4-[5-(2-Fluorophenoxy)-7-propoxyoxazolo[5,4-d]pyrimidin-2-yl]-2,6-dimethylphenoxy}acetyl)pyrrolidine-2-carboxylic acid] the activation at 10 µM was 96%.
Compound CCOc1nc(Oc2ccccc2F)nc2oc(-c3cc(C)c(OCC(=O)N4CCC[C@H]4C(=O)O)c(C)c3)nc12 [Example 12, (S)-1-(2-{4-[7-Ethoxy-5-(2-fluorophenoxy)oxazolo[5,4-d]pyrimidin-2-yl]-2,6-dimethylphenoxy}acetyl)pyrrolidine-2-carboxylic acid] has an activation at 10 µM of 70%.
For CCOc1nc(Oc2cc(F)ccc2C)nc2oc(-c3cc(C)c(OCC(=O)N4CCC[C@H]4C(=O)O)c(C)c3)nc12 [Example 14, (S)-1-(2-{4-[7-Ethoxy-5-(5-fluoro-2-methylphenoxy)oxazolo[5,4-d]pyrimidin-2-yl]-2,6-dimethylphenoxy}acetyl)pyrrolidine-2-carboxylic acid], the activation at 10 µM was 99%.
Compound CCCOc1nc(Oc2cc(F)ccc2C)nc2oc(-c3cc(C)c(OCC(=O)N4CCC[C@H]4C(=O)O)c(C)c3)nc12 [Example 4, (S)-1-(2-{4-[5-(5-Fluoro-2-methylphenoxy)-7-propoxyoxazolo[5,4-d]pyrimidin-2-yl]-2,6-dimethylphenoxy}acetyl)pyrrolidine-2-carboxylic acid] has an activation at 10 µM of 110%.
CCCOc1nc(Oc2cccnc2)nc2oc(-c3cc(C)c(OCC(=O)N4CCC[C@H]4C(=O)O)c(C)c3)nc12 [Example 6, (S)-1-(2-{2,6-Dimethyl-4-[7-propoxy-5-(pyridin-3-yloxy)oxazolo[5,4-d]pyrimidin-2-yl]phenoxy}acetyl)pyrrolidine-2-carboxylic acid] was tested, and the activation at 10 µM was 112%.
CCOc1nc(Oc2cccc(F)c2)nc2oc(-c3cc(C)c(OCC(=O)N4CCC[C@H]4C(=O)O)c(C)c3)nc12 [Example 11, (S)-1-(2-{4-[7-Ethoxy-5-(3-fluorophenoxy)oxazolo[5,4-d]pyrimidin-2-yl]-2,6-dimethylphenoxy}acetyl)pyrrolidine-2-carboxylic acid] gave an activation at 10 µM of 100%.
Work on CCCOc1nc(Oc2cc(F)ccc2F)nc2oc(-c3cc(C)c(OCC(=O)N4CCC[C@H]4C(=O)O)c(C)c3)nc12 [Example 1, (S)-1-(2-{4-[5-(2,5-Difluorophenoxy)-7-propoxyoxazolo[5,4-d]pyrimidin-2-yl]-2,6-dimethylphenoxy}acetyl)pyrrolidine-2-carboxylic acid] yielded an activation at 10 µM of 101%.
CCCOc1nc(Oc2ccc(F)cc2F)nc2oc(-c3cc(C)c(OCC(=O)N4CCC[C@H]4C(=O)O)c(C)c3)nc12 [Example 7, (S)-1-(2-{4-[5-(2,4-Difluorophenoxy)-7-propoxyoxazolo[5,4-d]pyrimidin-2-yl]-2,6-dimethylphenoxy}acetyl)pyrrolidine-2-carboxylic acid] showed an activation at 10 µM of 90%.
In the case of CCCOc1nc(Oc2ccc(C)c(F)c2)nc2oc(-c3cc(C)c(OCC(=O)N4CCC[C@H]4C(=O)O)c(C)c3)nc12 [Example 5, (S)-1-(2-{4-[5-(3-Fluoro-4-methylphenoxy)-7-propoxyoxazolo[5,4-d]pyrimidin-2-yl]-2,6-dimethylphenoxy}acetyl)pyrrolidine-2-carboxylic acid], the activation at 10 µM is reported as 79%.
In the case of CCOc1nc(Oc2cc(F)ccc2F)nc2oc(-c3cc(C)c(OCC(=O)N4CCC[C@H]4C(=O)O)c(C)c3)nc12 [Example 13, (S)-1-(2-{4-[5-(2,5-Difluorophenoxy)-7-ethoxyoxazolo[5,4-d]pyrimidin-2-yl]-2,6-dimethylphenoxy}acetyl)pyrrolidine-2-carboxylic acid], the activation at 10 µM is reported as 95%.
CCCOc1nc(N(C)CCC(F)(F)F)nc2oc(-c3cc(C)c(OCC(=O)N4CCC[C@H]4C(=O)O)c(C)c3)nc12 [Example 15, (S)-1-[2-(2,6-Dimethyl-4-{5-[methyl-(3,3,3-trifluoropropyl)amino]-7-propoxyoxazolo[5,4-d]pyrimidin-2-yl}phenoxy)acetyl]pyrrolidine-2-carboxylic acid] showed an activation at 10 µM of 42%.
Work on CCCOc1nc(OC2CCCC[C@H]2F)nc2oc(-c3cc(C)c(OCC(=O)N4CCC[C@H]4C(=O)O)c(C)c3)nc12 (stereo partly drawn) [Example 2, (S)-1-(2-{4-[5-(trans-2-fluorocyclohexyloxy)-7-propoxyoxazolo[5,4-d]pyrimidin-2-yl]-2,6-dimethylphenoxy}acetyl)pyrrolidine-2-carboxylic acid] yielded an activation at 10 µM of 97%.

From patent US8846691B2, “Heterocyclic carboxylic acid derivatives having a 2,5,7-substituted oxazolopyrimidine ring” (Sanofi, priority 2010, dated 2014)
